In the supplement of paper PMC13207355:

Key:
Details in all cases: exposure time: 72 h
E28 [1] = patient-derived glioblastoma stem cells of classical subtype; experiment: surviving fraction (nuclei count normalised to DMSO); higher = more cells surviving (less toxic)
E57 [2] = patient-derived glioblastoma stem cells of mesenchymal subtype; experiment: as above
FT3469 [3] = normal neural stem cell line; experiment: as above
E34 [4] = patient-derived glioblastoma stem cells of proneural subtype; experiment: as above
E13 [5] = patient-derived glioblastoma stem cells of classical subtype; experiment: as above
E21 [6] = patient-derived glioblastoma stem cells of mesenchymal subtype; experiment: as above
E31 [7] = patient-derived glioblastoma stem cells of proneural subtype; experiment: as above
E28 [8] = experiment: phenotypic distance (Euclidean, principal components) from DMSO controls (arbitrary units); higher = stronger morphological change
E57 [9] = experiment: as above
FT3469 [10] = experiment: as above
E34 [11] = experiment: as above
E13 [12] = experiment: as above
E21 [13] = experiment: as above
E31 [14] = experiment: as above
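Throughout, for phenotypic distance (Euclidean, principal components) from DMSO controls: cell Painting imaging in 384-well plates, CellProfiler features reduced to at least 20 principal components, Euclidean distance versus same-plate DMSO vehicle wells (0.1% v/v), median over six images per well.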
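Throughout, for surviving fraction (nuclei count normalised to DMSO): nuclei counted by high-content imaging of Hoechst-stained cells in laminin-coated 384-well plates, relative to 0.1% DMSO vehicle wells, with staurosporine as cell-death control.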

OCCN1CCN(CCCN2c3ccccc3Sc3ccc(Cl)cc32)CC1 [Perphenazine]
Details | phenotypic distance | surviving fraction
E13 [5], 4.1 nM | – | 0.93
E13 [5], 12.3 nM | – | 0.94
E13 [5], 37 nM | – | 0.849
E13 [5], 111.1 nM | – | 0.98
E13 [5], 333.3 nM | – | 0.964
E13 [5], 1000 nM | – | 1.05
E13 [5], 3000 nM | – | 0.837
E13 [12], 4.1 nM | 2.64 | –
E13 [12], 12.3 nM | 2.33 | –
E13 [12], 37 nM | 3.22 | –
E13 [12], 111.1 nM | 0.78 | –
E13 [12], 333.3 nM | 1.14 | –
E13 [12], 1000 nM | 3.07 | –
E13 [12], 3000 nM | 3.61 | –
E21 [6], 4.1 nM | – | 0.925
E21 [6], 12.3 nM | – | 1.06
E21 [6], 37 nM | – | 1.03
E21 [6], 111.1 nM | – | 1.05
E21 [6], 333.3 nM | – | 1.11
E21 [6], 1000 nM | – | 0.954
E21 [6], 3000 nM | – | 0.73
E21 [13], 4.1 nM | 0.988 | –
E21 [13], 12.3 nM | 0.761 | –
E21 [13], 37 nM | 0.693 | –
E21 [13], 111.1 nM | 1.08 | –
E21 [13], 333.3 nM | 0.995 | –
E21 [13], 1000 nM | 0.917 | –
E21 [13], 3000 nM | 2.66 | –
E28 [1], 4.1 nM | – | 1.09
E28 [1], 12.3 nM | – | 1.12
E28 [1], 37 nM | – | 1.07
E28 [1], 111.1 nM | – | 1.19
E28 [1], 333.3 nM | – | 0.953
E28 [1], 1000 nM | – | 1.09
E28 [1], 3000 nM | – | 0.848
E28 [8], 4.1 nM | 0.747 | –
E28 [8], 12.3 nM | 0.879 | –
E28 [8], 37 nM | 0.787 | –
E28 [8], 111.1 nM | 0.725 | –
E28 [8], 333.3 nM | 0.749 | –
E28 [8], 1000 nM | 0.938 | –
E28 [8], 3000 nM | 1.93 | –
E31 [7], 4.1 nM | – | 0.97
E31 [7], 12.3 nM | – | 1.07
E31 [7], 37 nM | – | 1.08
E31 [7], 111.1 nM | – | 1.14
E31 [7], 333.3 nM | – | 1.18
E31 [7], 1000 nM | – | 1.24
E31 [7], 3000 nM | – | 0.912
E31 [14], 4.1 nM | 1.23 | –
E31 [14], 12.3 nM | 0.866 | –
E31 [14], 37 nM | 0.873 | –
E31 [14], 111.1 nM | 1.86 | –
E31 [14], 333.3 nM | 1.75 | –
E31 [14], 1000 nM | 2.15 | –
E31 [14], 3000 nM | 3.18 | –
E34 [4], 4.1 nM | – | 0.951
E34 [4], 12.3 nM | – | 1.05
E34 [4], 37 nM | – | 1.1
E34 [4], 111.1 nM | – | 1.05
E34 [4], 333.3 nM | – | 0.994
E34 [4], 1000 nM | – | 1.19
E34 [4], 3000 nM | – | 0.986
E34 [11], 4.1 nM | 1.05 | –
E34 [11], 12.3 nM | 0.866 | –
E34 [11], 37 nM | 0.902 | –
E34 [11], 111.1 nM | 2.15 | –
E34 [11], 333.3 nM | 1.04 | –
E34 [11], 1000 nM | 1.51 | –
E34 [11], 3000 nM | 1.42 | –
E57 [2], 4.1 nM | – | 0.964
E57 [2], 12.3 nM | – | 0.957
E57 [2], 37 nM | – | 1
E57 [2], 111.1 nM | – | 1.1
E57 [2], 333.3 nM | – | 1.15
E57 [2], 1000 nM | – | 1.12
E57 [2], 3000 nM | – | 1.13
E57 [9], 4.1 nM | 1.04 | –
E57 [9], 12.3 nM | 0.836 | –
E57 [9], 37 nM | 0.782 | –
E57 [9], 111.1 nM | 0.979 | –
E57 [9], 333.3 nM | 0.789 | –
E57 [9], 1000 nM | 1.66 | –
E57 [9], 3000 nM | 2.41 | –
FT3469 [3], 4.1 nM | – | 1.11
FT3469 [3], 12.3 nM | – | 0.955
FT3469 [3], 37 nM | – | 1.01
FT3469 [3], 111.1 nM | – | 1.04
FT3469 [3], 333.3 nM | – | 0.866
FT3469 [3], 1000 nM | – | 0.938
FT3469 [3], 3000 nM | – | 1.03
FT3469 [10], 4.1 nM | 0.72 | –
FT3469 [10], 12.3 nM | 0.971 | –
FT3469 [10], 37 nM | 0.546 | –
FT3469 [10], 111.1 nM | 0.602 | –
FT3469 [10], 333.3 nM | 0.84 | –
FT3469 [10], 1000 nM | 0.79 | –
FT3469 [10], 3000 nM | 1.58 | –

CN1C(=O)CC(c2ccccc2)C1=O (stereo unspecified) [Phensuximide]
Details | phenotypic distance | surviving fraction
E13 [5], 4.1 nM | – | 0.921
E13 [5], 12.3 nM | – | 0.916
E13 [5], 37 nM | – | 1.01
E13 [5], 111.1 nM | – | 1
E13 [5], 333.3 nM | – | 1
E13 [5], 1000 nM | – | 1.06
E13 [5], 3000 nM | – | 0.927
E13 [12], 4.1 nM | 1.82 | –
E13 [12], 12.3 nM | 4.3 | –
E13 [12], 37 nM | 2.63 | –
E13 [12], 111.1 nM | 0.682 | –
E13 [12], 333.3 nM | 0.274 | –
E13 [12], 1000 nM | 0.544 | –
E13 [12], 3000 nM | 0.597 | –
E21 [6], 4.1 nM | – | 0.998
E21 [6], 12.3 nM | – | 0.996
E21 [6], 37 nM | – | 1.03
E21 [6], 111.1 nM | – | 1.04
E21 [6], 333.3 nM | – | 1
E21 [6], 1000 nM | – | 1.09
E21 [6], 3000 nM | – | 0.963
E21 [13], 4.1 nM | 0.59 | –
E21 [13], 12.3 nM | 0.489 | –
E21 [13], 37 nM | 0.352 | –
E21 [13], 111.1 nM | 0.519 | –
E21 [13], 333.3 nM | 0.385 | –
E21 [13], 1000 nM | 0.686 | –
E21 [13], 3000 nM | 0.387 | –
E28 [1], 4.1 nM | – | 1.07
E28 [1], 12.3 nM | – | 1.03
E28 [1], 37 nM | – | 1.15
E28 [1], 111.1 nM | – | 1.09
E28 [1], 333.3 nM | – | 1
E28 [1], 1000 nM | – | 0.995
E28 [1], 3000 nM | – | 1.2
E28 [8], 4.1 nM | 0.664 | –
E28 [8], 12.3 nM | 0.467 | –
E28 [8], 37 nM | 0.453 | –
E28 [8], 111.1 nM | 0.603 | –
E28 [8], 333.3 nM | 0.45 | –
E28 [8], 1000 nM | 0.513 | –
E28 [8], 3000 nM | 0.714 | –
E31 [7], 4.1 nM | – | 1.08
E31 [7], 12.3 nM | – | 1.07
E31 [7], 37 nM | – | 1.1
E31 [7], 111.1 nM | – | 1.01
E31 [7], 333.3 nM | – | 1.14
E31 [7], 1000 nM | – | 1.13
E31 [7], 3000 nM | – | 0.991
E31 [14], 4.1 nM | 0.79 | –
E31 [14], 12.3 nM | 0.39 | –
E31 [14], 37 nM | 0.726 | –
E31 [14], 111.1 nM | 0.491 | –
E31 [14], 333.3 nM | 0.604 | –
E31 [14], 1000 nM | 0.913 | –
E31 [14], 3000 nM | 0.717 | –
E34 [4], 4.1 nM | – | 0.918
E34 [4], 12.3 nM | – | 1.14
E34 [4], 37 nM | – | 0.912
E34 [4], 111.1 nM | – | 0.81
E34 [4], 333.3 nM | – | 1.16
E34 [4], 1000 nM | – | 1.1
E34 [4], 3000 nM | – | 1.1
E34 [11], 4.1 nM | 0.49 | –
E34 [11], 12.3 nM | 0.73 | –
E34 [11], 37 nM | 0.867 | –
E34 [11], 111.1 nM | 0.657 | –
E34 [11], 333.3 nM | 1.01 | –
E34 [11], 1000 nM | 0.819 | –
E34 [11], 3000 nM | 0.663 | –
E57 [2], 4.1 nM | – | 1.02
E57 [2], 12.3 nM | – | 1.06
E57 [2], 37 nM | – | 1.05
E57 [2], 111.1 nM | – | 1.03
E57 [2], 333.3 nM | – | 1.05
E57 [2], 1000 nM | – | 1.04
E57 [2], 3000 nM | – | 0.978
E57 [9], 4.1 nM | 0.764 | –
E57 [9], 12.3 nM | 0.516 | –
E57 [9], 37 nM | 0.543 | –
E57 [9], 111.1 nM | 0.342 | –
E57 [9], 333.3 nM | 0.878 | –
E57 [9], 1000 nM | 0.346 | –
E57 [9], 3000 nM | 0.811 | –
FT3469 [3], 4.1 nM | – | 0.946
FT3469 [3], 12.3 nM | – | 0.989
FT3469 [3], 37 nM | – | 1
FT3469 [3], 111.1 nM | – | 1
FT3469 [3], 333.3 nM | – | 0.985
FT3469 [3], 1000 nM | – | 1.01
FT3469 [3], 3000 nM | – | 1.15
FT3469 [10], 4.1 nM | 1.58 | –
FT3469 [10], 12.3 nM | 0.664 | –
FT3469 [10], 37 nM | 0.821 | –
FT3469 [10], 111.1 nM | 0.515 | –
FT3469 [10], 333.3 nM | 0.721 | –
FT3469 [10], 1000 nM | 0.254 | –
FT3469 [10], 3000 nM | 0.402 | –
